Reference: US12024512B2, “Cocrystal” (TAKEDA PHARMACEUTICAL COMPANY LIMITED, priority 2016, dated 2024)
Values after ≈ are worked out from the molar mass of the structure shown.

Tests used:
Assay type in all cases: physicochemical
[1] = Slurry experiment: crystal form of residue after stirring in test solvent; conditions: about 25° C., 24 hr
Procedure: (§1) Powder X-ray diffraction measurement was performed using Cu-Kα radiation and measured by horizontal multipurpose X-ray diffraction system Ultima IV manufactured by Rigaku Corporation. Differential scanning calorimetric or thermogravimetric measurement was performed using DSC1/700/903-2 manufactured by Mettler Toledo or TGA/DSC1/LF/629-2 manufactured by Mettler Toledo and measured at temperature rise rate 5° C./min. Infrared spectrum was measured using Fourier transform infrared spectrophotometer Shimadzu IR Prestige-21 manufactured by Shimadzu Corporation and mounting Dura Sample IR II manufactured by Smiths Detection and by a total reflection method absorption measurement method at resolution 4 cm^−1. Raman spectroscopy was measured using RXN2 manufactured by Kaiser Optical Systems and a laser light source at excitation wavelength 1064 nm. Single crystal X-ray diffraction was measured using Cu-Kα radiation and curved imaging plate single crystal automatic X-ray structure analyzer R-AXIS RAPID II manufactured by Rigaku Corporation. Initial phase was determined by the direct method and the structure was refined by SHELXL-97. […] Intrinsic dissolution rate measurement was evaluated using a compression-molded disc of a crystal powder alone and in 20 mmoL/L sodium phosphate buffer (pH 6.8) containing 0.2% (w/v) sodium lauryl sulfate and by a rotating disc method (rotating speed: 100 rpm). Dissolution test was performed using a powder obtained by physically mixing a crystal powder and lactose in the same weight as the crystal powder and evaluated in Fasted State Simulated Intestinal Fluid (FaSSIF) at 37° C. by a rotating paddle method (paddle rotating speed: 50 rpm). The drug concentration of a solution was determined by liquid chromatography using Alliance HPLC system e2695 and detector 2789 manufactured by Waters (separation column: YMCPackPro C18 4.6 mm[…]×150 mm, temperature: 40° C., mobile phase: 20 mmol/L sodium phosphate buffer (pH 6.8)/acetonitrile=60/40 (v/v), flow rate: 1 mL/min, ultraviolet absorption detection wavelength: 240 nm). As slurry experiment, a test solvent was added to a crystal powder, the mixture was stirred at about 25° C. for 24 hr in suspension, the obtained residue was collected by filtration, and the crystal form was confirmed by powder X-ray diffraction measurement or Raman spectroscopy. In the recrystallization experiment, crystals were dissolved in ethanol, acetone, 2-propanol, tetrahydrofuran, methyl ethyl ketone, ethyl acetate, isopropyl acetate, anisole or isobutyl acetate at 55° C., filtered through a filter, allowed to cool to 5° C. or allowed to cool to 5° C. after adding n-heptane to the solution, and the crystal form of the obtained precipitate was confirmed by powder X-ray diffraction measurement or Raman spectroscopy.

[2] = Solubility in aqueous solutions after shaking each crystal at 37° C. for 24 hr; conditions: thermodynamic from solid, 24 hr shaking
[3] = Recrystallization experiment: crystal form of precipitate from organic solvent; conditions: dissolved at 55° C., cooled to 5° C.
Procedure: as §1

[4] = 2-propanol/n-heptane, n-heptane added
[5] = acetone/n-heptane, n-heptane added
[6] = anisole/n-heptane, n-heptane added
[7] = ethanol/n-heptane, n-heptane added
[8] = ethyl acetate/n-heptane, n-heptane added
[9] = methyl ethyl ketone/n-heptane, n-heptane added
[10] = tetrahydrofuran/n-heptane, n-heptane added
[11] = isobutyl acetate/n-heptane, n-heptane added
[12] = isopropyl acetate/n-heptane, n-heptane added

| Compound | Crystal form of residue after slurry experiment ([1]; 2-propanol) | Crystal form of residue after slurry experiment ([1]; acetone) | Crystal form of residue after slurry experiment ([1]; anisole) | Crystal form of residue after slurry experiment ([1]; distilled water) | Crystal form of residue after slurry experiment ([1]; ethanol) | Crystal form of residue after slurry experiment ([1]; ethyl acetate) | Crystal form of residue after slurry experiment ([1]; methyl ethyl ketone) | Crystal form of residue after slurry experiment ([1]; tetrahydrofuran) | Crystal form of precipitate obtained by recrystallization experiment ([3]; 2-propanol) | Crystal form of precipitate obtained by recrystallization experiment [3, 4] | Crystal form of precipitate obtained by recrystallization experiment ([3]; acetone) | Crystal form of precipitate obtained by recrystallization experiment [3, 5] | Crystal form of precipitate obtained by recrystallization experiment ([3]; anisole) | Crystal form of precipitate obtained by recrystallization experiment [3, 6] | Crystal form of precipitate obtained by recrystallization experiment ([3]; ethanol) | Crystal form of precipitate obtained by recrystallization experiment [3, 7] | Crystal form of precipitate obtained by recrystallization experiment ([3]; ethyl acetate) | Crystal form of precipitate obtained by recrystallization experiment [3, 8] | Crystal form of precipitate obtained by recrystallization experiment ([3]; isobutyl acetate) | Crystal form of precipitate obtained by recrystallization experiment ([3]; isopropyl acetate) | further results |
| --- | --- | --- | --- | --- | --- | --- | --- | --- | --- | --- | --- | --- | --- | --- | --- | --- | --- | --- | --- | --- | --- |
| CCc1cc2c(c(OCC(F)(F)F)c(C(=O)NC3CCN(C(=O)CO)CC3)n2C)c(=O)n1CC(=O)c1ccccc1 [anhydrous crystal of free form, 6-ethyl-N-[1-(hydroxyacetyl)piperidin-4-yl]-1-methyl-4-oxo-5-(2-oxo-2-phenylethyl)-3-(2,2,2-trifluoroethoxy)-4,5-dihydro-1H-pyrrolo[3,2-c]pyridine-2-carboxamide, reference compound] | free form (solvate) | free form (solvate) | free form (solvate) | free form (solvate) | free form (solvate) | free form (solvate) | free form (solvate) | free form (solvate) | free form (solvate) | free form (solvate) | free form (solvate) | free form (solvate) | free form (solvate) | free form (solvate) | free form (solvate) | free form (solvate) | free form (solvate) | free form (solvate) | free form solvate) | free form (solvate) | solubility at 24 hr ([2]; Fasted State Simulated Intestinal Fluid (FaSSIF), FaSSIF): 23.9 ± 0.1 µg/mL (≈ 41.5 µM); solubility at 24 hr ([2]; Fed State Simulated Intestinal Fluid (FeSSIF), FeSSIF): 88.7 ± 0.7 µg/mL (≈ 154 µM); solubility at 24 hr ([2]; Japanese Pharmacopoeia 1st fluid for dissolution test (JP1), simulated gastric fluid, JP1 (Japanese Pharmacopoeia 1st fluid for dissolution test)): 20.6 ± 0.4 µg/mL (≈ 35.7 µM); solubility at 24 hr ([2]; distilled water, concentration of API): 21.5 ± 0.5 µg/mL (≈ 37.3 µM); Crystal form of precipitate obtained by recrystallization experiment ([3]; methyl ethyl ketone): free form (solvate); Crystal form of precipitate obtained by recrystallization experiment [3, 9]: free form (solvate); Crystal form of precipitate obtained by recrystallization experiment ([3]; tetrahydrofuran): free form (solvate); Crystal form of precipitate obtained by recrystallization experiment [3, 10]: free form (solvate) |
| CCc1cc2c(c(OCC(F)(F)F)c(C(=O)NC3CCN(C(=O)CO)CC3)n2C)c(=O)n1CC(=O)c1ccccc1.O=C(O)C[C@H](O)C(=O)O [cocrystal with L-malic acid, cocrystal of 6-ethyl-N-[1-(hydroxyacetyl)piperidin-4-yl]-1-methyl-4-oxo-5-(2-oxo-2-phenylethyl)-3-(2,2,2-trifluoroethoxy)-4,5-dihydro-1H-pyrrolo[3,2-c]pyridine-2-carboxamide and L-malic acid] | cocrystal * | cocrystal * | free form (solvate) | cocrystal* + free form (solvate) | cocrystal * | cocrystal* + free form (solvate) | cocrystal* + free form (solvate) | free form (solvate) | no precipitate | cocrystal * | free form (solvate) | free form (solvate) | no precipitate | free form (solvate) | free form (solvate) | free form (solvate) | free form (solvate) | free form (solvate) | cocrystal * + free form (solvate) | free form (solvate) | Crystal form of precipitate obtained by recrystallization experiment [3, 11]: free form (solvate); Crystal form of precipitate obtained by recrystallization experiment [3, 12]: cocrystal * + free form (solvate); Crystal form of precipitate obtained by recrystallization experiment ([3]; methyl ethyl ketone): free form (solvate); Crystal form of precipitate obtained by recrystallization experiment [3, 9]: cocrystal + free form (solvate); Crystal form of precipitate obtained by recrystallization experiment ([3]; tetrahydrofuran): free form (solvate); Crystal form of precipitate obtained by recrystallization experiment [3, 10]: cocrystal + free form (solvate) |
| CCc1cc2c(c(OCC(F)(F)F)c(C(=O)NC3CCN(C(=O)CO)CC3)n2C)c(=O)n1CC(=O)c1ccccc1.O=C(O)C(O)C(O)C(=O)O [cocrystal with L-tartaric acid, cocrystal of 6-ethyl-N-[1-(hydroxyacetyl)piperidin-4-yl]-1-methyl-4-oxo-5-(2-oxo-2-phenylethyl)-3-(2,2,2-trifluoroethoxy)-4,5-dihydro-1H-pyrrolo[3,2-c]pyridine-2-carboxamide and L-tartaric acid] | cocrystal* + free form (solvate) | cocrystal * | cocrystal* + free form (solvate) | cocrystal* + free form (solvate) | cocrystal * + free form (solvate) | cocrystal* + free form (solvate) | cocrystal* + free form (solvate) | cocrystal* + free form (solvate) | cocrystal * | cocrystal * | free form (solvate) | cocrystal * + free form (solvate) | no precipitate | free form (solvate) | free form (solvate) | free form (solvate) | free form (solvate) | cocrystal * + free form (solvate) | cocrystal * | free form (solvate) | Crystal form of precipitate obtained by recrystallization experiment [3, 11]: cocrystal *; Crystal form of precipitate obtained by recrystallization experiment [3, 12]: cocrystal *; Crystal form of precipitate obtained by recrystallization experiment ([3]; methyl ethyl ketone): free form (solvate); Crystal form of precipitate obtained by recrystallization experiment [3, 9]: cocrystal *; Crystal form of precipitate obtained by recrystallization experiment ([3]; tetrahydrofuran): free form (solvate); Crystal form of precipitate obtained by recrystallization experiment [3, 10]: cocrystal * |
